Assays:
Assay type in all cases: biochemical
[1] = molecular target: T1, baculoviral GST-MLK2KDLZ (Homo sapiens, UniProt Q02779); experiment: Mixed Lineage Kinase-2 inhibition assay (Millipore Multiscreen plate, 32P); conditions: 1 uM compound, 100 μM ATP; for inhibition at 1 µM: read-out: MLK-2 Kinase % inhibition @ 1 uM
T1 construct: 3 μg/ml of baculoviral GST-MLK2KDLZ; GST (N); host or cells: baculovirus expression system
Experimental: Inhibition of Mixed Lineage Kinase-2 Activity
(§1) Assays were performed using the Millipore Multiscreen plate format as described for MLK1. Each 50-μl assay mixture contained 20 mM Hepes, pH 7, 1 mM EGTA, 10 mM MgCl2, 1 mM DTT, 25 mM β-glycerophosphate, 100 μM ATP, 0.25 μCi [γ-^32P]ATP, 0.1% BSA, 500 μg/ml myelin basic protein (UBI #13-104), 2% DMSO, various concentrations of test compound, and 3 μg/ml of baculoviral GST-MLK2KDLZ. Samples were incubated for 15 min. at 37° C. The reaction was stopped by adding ice cold 50% TCA and the proteins were allowed to precipitate for 30 min at 4° C. The plates were then washed with ice cold 25% TCA Supermix scintillation cocktail was added, and the plates were allowed to equilibrate for 1-2 hours prior to counting.

[2] = molecular target: T2, recombinant human baculoviral VEGFR2 cyctoplasmic domain (Homo sapiens, UniProt P35968); experiment: VEGFR2 kinase inhibition assay (ELISA-based, time-resolved fluorescence); conditions: 1 uM compound, 30 μM ATP; for inhibition at 1 µM: read-out: VEGFR-2 kinase % inhibition @ 1 uM
T2 construct: recombinant human baculoviral VEGFR2 cyctoplasmic domain; host or cells: baculovirus expression system
T2 sequence (P35968 786-1356 limits assumed): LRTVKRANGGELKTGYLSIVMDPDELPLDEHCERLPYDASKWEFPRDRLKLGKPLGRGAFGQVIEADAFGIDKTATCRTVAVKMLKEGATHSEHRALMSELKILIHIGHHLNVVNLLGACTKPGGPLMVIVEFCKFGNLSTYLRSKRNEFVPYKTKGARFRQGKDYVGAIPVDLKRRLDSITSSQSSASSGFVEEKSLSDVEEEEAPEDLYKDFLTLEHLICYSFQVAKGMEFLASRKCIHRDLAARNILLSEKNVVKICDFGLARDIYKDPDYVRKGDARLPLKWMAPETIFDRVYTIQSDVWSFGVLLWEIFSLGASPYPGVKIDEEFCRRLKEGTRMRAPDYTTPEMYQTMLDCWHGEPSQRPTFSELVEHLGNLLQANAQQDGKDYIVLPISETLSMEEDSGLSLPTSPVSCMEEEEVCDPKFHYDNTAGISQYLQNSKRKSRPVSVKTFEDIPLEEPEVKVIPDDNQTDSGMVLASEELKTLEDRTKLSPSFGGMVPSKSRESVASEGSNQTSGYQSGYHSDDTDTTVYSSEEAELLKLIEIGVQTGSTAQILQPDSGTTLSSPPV
Experimental: Inhibition of Vascular Endothelial Growth Factor Receptor-2 Kinase Activity
Assay were performed as described for trkA kinase below. The 96-well microtiter plate (FluoroNUNC Maxisorp) was coated with 40 μg/ml recombinant human phospholipase C-γ1/glutathione S-transferase fusion protein. Inhibition studies were performed in 100 μl assay mixtures containing 50 mM HEPES, pH 7.4, 30 μM ATP, 10 mM MnCl2, 0.1% BSA, 2% DMSO, and 1 μM of test compound. The reaction was initiated by adding prephosphorylated recombinant human baculoviral VEGFR2 cyctoplasmic domain. The reaction was allowed to proceed for 15 minutes at 37° C. The detection antibody, eurpium-labeled anti-phosphotyrosine antibody (Wallac #CR04-100), was added at 1:5000 dilution in block buffer (3% BSA in TBST).

[3] = molecular target: T3, baculoviral GST-MLK3KD (Homo sapiens, UniProt Q16584); experiment: Mixed Lineage Kinase-3 inhibition assay (Millipore Multiscreen plate, 32P); conditions: 1 uM compound, 100 μM ATP; for inhibition at 1 µM: read-out: MLK-3 Kinase % inhibition @ 1 uM
T3 construct: 2 μg/ml of baculoviral GST-MLK3KD; GST (N); host or cells: baculovirus expression system
T3 sequence (Q16584 117-379 limits assumed): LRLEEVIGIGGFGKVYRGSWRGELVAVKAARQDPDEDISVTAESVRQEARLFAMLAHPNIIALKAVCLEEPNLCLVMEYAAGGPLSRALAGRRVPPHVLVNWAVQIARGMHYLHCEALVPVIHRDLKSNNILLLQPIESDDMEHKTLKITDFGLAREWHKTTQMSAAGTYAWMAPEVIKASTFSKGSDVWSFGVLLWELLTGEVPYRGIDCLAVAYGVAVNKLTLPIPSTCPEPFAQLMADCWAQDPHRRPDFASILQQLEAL
Experimental: Inhibition of Mixed Lineage Kinase-3 Activity
as §1, with “MLK1. Briefly, each” for “MLK1. Each”, “and 2” for “and 3”, “baculoviral GST-MLK3KD.” for “baculoviral GST-MLK2KDLZ.”, “15 min” for “15 min.”, “25% TCA.” for “25% TCA”

T1 sequence (Q02779 98-440 limits assumed): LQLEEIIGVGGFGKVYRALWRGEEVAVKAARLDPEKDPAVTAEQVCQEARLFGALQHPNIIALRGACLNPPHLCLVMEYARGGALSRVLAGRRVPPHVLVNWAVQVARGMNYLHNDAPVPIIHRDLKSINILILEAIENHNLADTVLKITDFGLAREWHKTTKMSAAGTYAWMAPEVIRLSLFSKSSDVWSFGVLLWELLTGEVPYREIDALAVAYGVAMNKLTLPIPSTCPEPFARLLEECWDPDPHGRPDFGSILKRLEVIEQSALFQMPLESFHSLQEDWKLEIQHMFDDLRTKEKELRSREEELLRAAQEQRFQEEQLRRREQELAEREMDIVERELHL

| Structure (SMILES) | inhibition at 1 µM [1] | inhibition at 1 µM [2] | inhibition at 1 µM [3] | MLK-2 Kinase % inhibition @ 1 uM [1] | VEGFR-2 kinase % inhibition @ 1 uM [2] | MLK-3 Kinase % inhibition @ 1 uM [3] |
| --- | --- | --- | --- | --- | --- | --- |
| Cc1cc(C)c(C=C2C(=O)NN=C2c2ccsc2)[nH]1 [Compound 37, 4-[(3,5-dimethylpyrrol-2-yl)methylene]-3-(3-thienyl)-2-pyrazolin-5-one] | 12% | 62% | 79% |  |  |  |
| O=C1NN=C(c2cccs2)C1=Cc1c[nH]c2ccccc12 [Compound 38, 4-(indol-3-ylmethylene)-3-(2-thienyl)-2-pyrazolin-5-one] | 2% | 42% | 38% |  |  |  |
| Cc1cc(C)c(C=C2C(=O)NN=C2c2csc3ccccc23)[nH]1 [Compound 39] |  |  |  | −7% | 13% | 55% |
| Cc1cc(C)c(C=C2C(=O)NN=C2c2csc(-c3ccccc3)n2)[nH]1 [Compound 40] |  |  |  | −8% | 26% | 22% |
| Cc1cc(C)c(C=C2C(=O)NN=C2c2cc(-c3ccc(Cl)cc3)oc2C)[nH]1 [Compound 41] |  |  |  | −15% | 13% | 10% |
| Cc1oc(-c2ccc(Cl)cc2)cc1C1=NNC(=O)C1=Cc1c[nH]c2ccccc12 [Compound 42] |  |  |  | −10% | 28% | 21% |
| O=C1NN=C(c2ccco2)C1=Cc1c[nH]c2ccc(OCc3ccccc3)cc12 [Compound 43] |  |  |  | 2% | 25% | 21% |
| O=C1NN=C(c2ccco2)C1=Cc1c[nH]c2cccc(OCc3ccccc3)c12 [Compound 44] |  |  |  | −3% | 18% | 28% |
| Cn1cc(C=C2C(=O)NN=C2c2ccco2)c2ccccc21 [Compound 45] |  |  |  | −22% | 72% | 56% |
| Cc1ccc2c(C=C3C(=O)NN=C3c3ccco3)c[nH]c2c1 [Compound 46] |  |  |  | 2% | 71% | 36% |
| Cc1cccc2c(C=C3C(=O)NN=C3c3ccco3)c[nH]c12 [Compound 47] |  |  |  | −2% | 64% | 31% |
| O=C1NN=C(c2ccco2)C1=Cc1c[nH]c2ccc(F)cc12 [Compound 48] |  |  |  | 3% | 58% | 31% |
| O=C1NN=C(c2ccco2)C1=Cc1c[nH]c2ccc(Cl)cc12 [Compound 49] |  |  |  | 3% | 50% | 21% |
| COC(=O)c1ccc2c(C=C3C(=O)NN=C3c3ccco3)c[nH]c2c1 [Compound 50] |  |  |  | −1% | 44% | 15% |
| COc1ccc2[nH]cc(C=C3C(=O)NN=C3c3ccco3)c2c1 [Compound 51] |  |  |  | 3% | 55% | 47% |
| CN(C)c1ccc(C=C2C(=O)NN=C2c2ccco2)cc1 [Compound 52] |  |  |  | 5% | 19% | 19% |
| Cc1nc[nH]c1C=C1C(=O)NN=C1c1ccco1 [Compound 53] |  |  |  | −13% | 34% | 12% |
| O=C1NN=C(c2ccco2)C1=Cc1ncc[nH]1 [Compound 54] |  |  |  | −48% | 4% | 0% |
| Cc1cc(C)c(C=C2C(=O)NN=C2c2cccn2C)[nH]1 [Compound 55] |  |  |  | 2% | 38% | 26% |

Reference: patent US6831075B2, “Heterocyclic substituted pyrazolones” (Cephalon, Inc., priority 1999, dated 2004)
